Source: the NIST ThermoML archive (doi:10.1007/s10765-006-0122-6)
Numbers after ± are expanded uncertainties.

Conditions: for kinematic viscosity / surface tension liquid-gas: surface light scattering; for speed of sound / thermal diffusivity: dynamic light scattering

FC(C(F)(F)F)C(F)(F)F [1,1,1,2,3,3,3-heptafluoropropane]
kinematic viscosity (253.15 K, Liquid): 2.88e-07 ± 5.8e-09 m2/s | surface tension liquid-gas (253.15 K, Liquid): 12.26 ± 0.25 mN/m | kinematic viscosity (263.15 K, Liquid): 2.54e-07 ± 5.1e-09 m2/s | surface tension liquid-gas (263.15 K, Liquid): 10.96 ± 0.22 mN/m | kinematic viscosity (273.15 K, Liquid): 2.28e-07 ± 4.6e-09 m2/s | surface tension liquid-gas (273.15 K, Liquid): 9.76 ± 0.2 mN/m | kinematic viscosity (283.15 K, Liquid): 2.05e-07 ± 4.1e-09 m2/s | surface tension liquid-gas (283.15 K, Liquid): 8.62 ± 0.17 mN/m | kinematic viscosity (293.15 K, Liquid): 1.83e-07 ± 3.7e-09 m2/s | surface tension liquid-gas (293.15 K, Liquid): 7.46 ± 0.15 mN/m | speed of sound (293.22 K, Liquid): 437.4 ± 4.4 m/s | thermal diffusivity (293.22 K, Liquid): 3.66e-08 ± 7e-10 m2/s | speed of sound (303.12 K, Liquid): 397.8 ± 4 m/s | thermal diffusivity (303.12 K, Liquid): 3.5e-08 ± 7e-10 m2/s | kinematic viscosity (303.15 K, Liquid): 1.66e-07 ± 6.6e-09 m2/s | surface tension liquid-gas (303.15 K, Liquid): 6.31 ± 0.13 mN/m | kinematic viscosity (313.15 K, Liquid): 1.52e-07 ± 6.1e-09 m2/s | surface tension liquid-gas (313.15 K, Liquid): 5.25 ± 0.11 mN/m | speed of sound (313.2 K, Liquid): 356.8 ± 3.6 m/s | thermal diffusivity (313.2 K, Liquid): 3.26e-08 ± 7e-10 m2/s | kinematic viscosity (323.15 K, Liquid): 1.36e-07 ± 5.4e-09 m2/s | surface tension liquid-gas (323.15 K, Liquid): 4.23 ± 0.09 mN/m | speed of sound (323.18 K, Liquid): 315.5 ± 3.2 m/s | thermal diffusivity (323.18 K, Liquid): 3.14e-08 ± 6e-10 m2/s | speed of sound (332.72 K, Liquid): 275.1 ± 2.8 m/s | thermal diffusivity (332.72 K, Liquid): 2.95e-08 ± 6e-10 m2/s | kinematic viscosity (333.15 K, Liquid): 1.22e-07 ± 4.9e-09 m2/s | surface tension liquid-gas (333.15 K, Liquid): 3.23 ± 0.07 mN/m | speed of sound (342.68 K, Liquid): 231.6 ± 2.4 m/s | thermal diffusivity (342.68 K, Liquid): 2.76e-08 ± 6e-10 m2/s | kinematic viscosity (343.15 K, Liquid): 1.08e-07 ± 4.3e-09 m2/s | surface tension liquid-gas (343.15 K, Liquid): 2.3 ± 0.05 mN/m | speed of sound (345.66 K, Gas): 92.5 ± 0.9 m/s | thermal diffusivity (345.66 K, Gas): 1.01e-07 ± 2e-09 m2/s | speed of sound (348.02 K, Liquid): 208.4 ± 2.1 m/s | thermal diffusivity (348.02 K, Liquid): 2.66e-08 ± 5e-10 m2/s | speed of sound (348.15 K, Gas): 90.6 ± 0.9 m/s | thermal diffusivity (348.15 K, Gas): 9.3e-08 ± 1.9e-09 m2/s | speed of sound (350.65 K, Gas): 89.4 ± 0.9 m/s | thermal diffusivity (350.65 K, Gas): 8.46e-08 ± 1.7e-09 m2/s | speed of sound (353.02 K, Liquid): 185.5 ± 1.9 m/s | thermal diffusivity (353.02 K, Liquid): 2.51e-08 ± 5e-10 m2/s | speed of sound (353.15 K, Gas): 87.1 ± 0.9 m/s | thermal diffusivity (353.15 K, Gas): 7.64e-08 ± 1.5e-09 m2/s | kinematic viscosity (353.15 K, Liquid): 9.43e-08 ± 3.8e-09 m2/s | surface tension liquid-gas (353.15 K, Liquid): 1.42 ± 0.03 mN/m | speed of sound (355.64 K, Gas): 85.1 ± 0.9 m/s | thermal diffusivity (355.64 K, Gas): 6.9e-08 ± 1.4e-09 m2/s | speed of sound (358.09 K, Liquid): 160.8 ± 1.7 m/s | thermal diffusivity (358.09 K, Liquid): 2.36e-08 ± 5e-10 m2/s | speed of sound (358.14 K, Gas): 82.9 ± 0.8 m/s | thermal diffusivity (358.14 K, Gas): 6.06e-08 ± 1.2e-09 m2/s | kinematic viscosity (358.15 K, Liquid): 8.74e-08 ± 3.5e-09 m2/s | surface tension liquid-gas (358.15 K, Liquid): 1.02 ± 0.03 mN/m | speed of sound (360.64 K, Gas): 80.4 ± 0.8 m/s | thermal diffusivity (360.64 K, Gas): 5.25e-08 ± 1.1e-09 m2/s | speed of sound (363.09 K, Liquid): 134.7 ± 1.5 m/s | thermal diffusivity (363.09 K, Liquid): 2.11e-08 ± 4e-10 m2/s | speed of sound (363.14 K, Gas): 77.9 ± 0.8 m/s | thermal diffusivity (363.14 K, Gas): 4.41e-08 ± 9e-10 m2/s | kinematic viscosity (363.15 K, Liquid): 8.08e-08 ± 3.2e-09 m2/s | surface tension liquid-gas (363.15 K, Liquid): 0.644 ± 0.019 mN/m | speed of sound (365.63 K, Gas): 75.2 ± 0.8 m/s | thermal diffusivity (365.63 K, Gas): 3.6e-08 ± 7e-10 m2/s | speed of sound (365.9 K, Liquid): 118.5 ± 1.3 m/s | thermal diffusivity (365.9 K, Liquid): 1.92e-08 ± 4e-10 m2/s | speed of sound (367.67 K, Gas): 72.8 ± 0.7 m/s | thermal diffusivity (367.67 K, Gas): 2.91e-08 ± 6e-10 m2/s | speed of sound (368.08 K, Liquid): 106.1 ± 1.2 m/s | thermal diffusivity (368.08 K, Liquid): 1.72e-08 ± 4e-10 m2/s | kinematic viscosity (368.15 K, Liquid): 7.34e-08 ± 3e-09 m2/s | surface tension liquid-gas (368.15 K, Liquid): 0.314 ± 0.014 mN/m | speed of sound (369.47 K, Gas): 70.5 ± 0.7 m/s | thermal diffusivity (369.47 K, Gas): 2.26e-08 ± 5e-10 m2/s | kinematic viscosity (370.15 K, Liquid): 7.03e-08 ± 2.8e-09 m2/s | surface tension liquid-gas (370.15 K, Liquid): 0.2 ± 0.012 mN/m | speed of sound (370.2 K, Liquid): 92.6 ± 1.1 m/s | thermal diffusivity (370.2 K, Liquid): 1.42e-08 ± 3e-10 m2/s | speed of sound (370.76 K, Gas): 68.7 ± 0.7 m/s | thermal diffusivity (370.76 K, Gas): 1.78e-08 ± 4e-10 m2/s | kinematic viscosity (371.15 K, Liquid): 6.79e-08 ± 2.7e-09 m2/s | surface tension liquid-gas (371.15 K, Liquid): 0.145 ± 0.011 mN/m | speed of sound (371.41 K, Liquid): 83.8 ± 1.1 m/s | thermal diffusivity (371.41 K, Liquid): 1.21e-08 ± 3e-10 m2/s | speed of sound (371.96 K, Gas): 67 ± 0.7 m/s | thermal diffusivity (371.96 K, Gas): 1.32e-08 ± 3e-10 m2/s | kinematic viscosity (372.15 K, Liquid): 6.74e-08 ± 2.7e-09 m2/s | speed of sound (372.19 K, Liquid): 78.2 ± 1.1 m/s | thermal diffusivity (372.19 K, Liquid): 9.91e-09 ± 3.3e-10 m2/s | speed of sound (372.96 K, Gas): 65.3 ± 0.7 m/s | thermal diffusivity (372.96 K, Gas): 9.21e-09 ± 1.8e-10 m2/s | speed of sound (372.99 K, Liquid): 72.8 ± 1.1 m/s | thermal diffusivity (372.99 K, Liquid): 7.88e-09 ± 3.3e-10 m2/s | speed of sound (373.5 K, Liquid): 68.3 ± 1 m/s | thermal diffusivity (373.5 K, Liquid): 6.11e-09 ± 3.7e-10 m2/s | speed of sound (373.95 K, Gas): 63.6 ± 0.7 m/s | thermal diffusivity (373.95 K, Gas): 4.9e-09 ± 1e-10 m2/s | speed of sound (373.99 K, Liquid): 65.3 ± 0.9 m/s | thermal diffusivity (373.99 K, Liquid): 4.34e-09 ± 4e-10 m2/s | thermal diffusivity (374.45 K, Gas): 2.65e-09 ± 5e-11 m2/s | thermal diffusivity (374.49 K, Liquid): 2.24e-09 ± 4.4e-10 m2/s | thermal diffusivity (374.65 K, Gas): 1.73e-09 ± 4e-11 m2/s | thermal diffusivity (374.67 K, Liquid): 1.36e-09 ± 4.9e-10 m2/s | Critical temperature (Liquid, Visual observation in an unstirred cell): 374.9 ± 0.12 K
